# Source: ChEMBL document CHEMBL5465560, “Selectivity Literature for EUbOPEN Chemogenomic Library” (2024)
# How the values were obtained:
# [1] = biological target: T1, Serine/threonine-protein kinase LATS1 (Homo sapiens) (UniProt O95835); experiment: Selectivity interaction (LanthaScreen Eu Kinase Binding Assay) EUB0001632a LATS1; settings: at 10 µM
# T1 sequence (whole entry): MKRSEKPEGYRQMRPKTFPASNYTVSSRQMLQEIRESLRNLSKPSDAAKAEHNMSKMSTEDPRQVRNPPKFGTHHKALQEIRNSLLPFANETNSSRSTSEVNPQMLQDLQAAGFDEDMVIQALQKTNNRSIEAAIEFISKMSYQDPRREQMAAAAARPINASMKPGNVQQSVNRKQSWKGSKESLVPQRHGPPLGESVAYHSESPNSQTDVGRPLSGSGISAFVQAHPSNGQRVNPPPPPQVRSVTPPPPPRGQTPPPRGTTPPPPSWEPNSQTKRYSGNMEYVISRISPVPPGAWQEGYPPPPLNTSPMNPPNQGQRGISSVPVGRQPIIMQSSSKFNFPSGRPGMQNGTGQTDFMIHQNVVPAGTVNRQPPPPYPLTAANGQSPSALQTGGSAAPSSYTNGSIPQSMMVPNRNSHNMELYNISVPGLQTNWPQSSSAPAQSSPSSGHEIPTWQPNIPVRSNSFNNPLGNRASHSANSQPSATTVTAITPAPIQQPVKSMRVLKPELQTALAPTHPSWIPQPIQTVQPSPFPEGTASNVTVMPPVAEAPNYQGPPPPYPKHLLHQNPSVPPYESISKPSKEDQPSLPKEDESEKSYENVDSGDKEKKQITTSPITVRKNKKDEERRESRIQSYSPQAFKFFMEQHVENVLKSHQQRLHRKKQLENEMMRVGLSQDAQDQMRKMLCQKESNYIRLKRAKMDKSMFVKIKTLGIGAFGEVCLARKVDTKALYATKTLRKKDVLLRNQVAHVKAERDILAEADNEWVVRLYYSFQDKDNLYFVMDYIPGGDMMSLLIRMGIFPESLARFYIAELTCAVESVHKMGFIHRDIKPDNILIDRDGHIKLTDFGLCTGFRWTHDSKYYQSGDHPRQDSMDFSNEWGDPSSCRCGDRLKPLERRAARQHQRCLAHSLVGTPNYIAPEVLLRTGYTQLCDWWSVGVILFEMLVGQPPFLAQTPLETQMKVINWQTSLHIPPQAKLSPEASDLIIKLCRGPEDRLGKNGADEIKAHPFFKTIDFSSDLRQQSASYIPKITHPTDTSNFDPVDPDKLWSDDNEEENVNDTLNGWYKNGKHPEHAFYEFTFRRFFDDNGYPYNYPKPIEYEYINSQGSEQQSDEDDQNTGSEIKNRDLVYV
# CREB-binding protein = CREB-binding protein (Homo sapiens, UniProt Q92793); experiment: Selectivity interaction (Human bromodomain panel (DSF assay)) EUB0000233b CREBBP
# CREB-binding protein, sequence (Q92793 2-2442 limits assumed): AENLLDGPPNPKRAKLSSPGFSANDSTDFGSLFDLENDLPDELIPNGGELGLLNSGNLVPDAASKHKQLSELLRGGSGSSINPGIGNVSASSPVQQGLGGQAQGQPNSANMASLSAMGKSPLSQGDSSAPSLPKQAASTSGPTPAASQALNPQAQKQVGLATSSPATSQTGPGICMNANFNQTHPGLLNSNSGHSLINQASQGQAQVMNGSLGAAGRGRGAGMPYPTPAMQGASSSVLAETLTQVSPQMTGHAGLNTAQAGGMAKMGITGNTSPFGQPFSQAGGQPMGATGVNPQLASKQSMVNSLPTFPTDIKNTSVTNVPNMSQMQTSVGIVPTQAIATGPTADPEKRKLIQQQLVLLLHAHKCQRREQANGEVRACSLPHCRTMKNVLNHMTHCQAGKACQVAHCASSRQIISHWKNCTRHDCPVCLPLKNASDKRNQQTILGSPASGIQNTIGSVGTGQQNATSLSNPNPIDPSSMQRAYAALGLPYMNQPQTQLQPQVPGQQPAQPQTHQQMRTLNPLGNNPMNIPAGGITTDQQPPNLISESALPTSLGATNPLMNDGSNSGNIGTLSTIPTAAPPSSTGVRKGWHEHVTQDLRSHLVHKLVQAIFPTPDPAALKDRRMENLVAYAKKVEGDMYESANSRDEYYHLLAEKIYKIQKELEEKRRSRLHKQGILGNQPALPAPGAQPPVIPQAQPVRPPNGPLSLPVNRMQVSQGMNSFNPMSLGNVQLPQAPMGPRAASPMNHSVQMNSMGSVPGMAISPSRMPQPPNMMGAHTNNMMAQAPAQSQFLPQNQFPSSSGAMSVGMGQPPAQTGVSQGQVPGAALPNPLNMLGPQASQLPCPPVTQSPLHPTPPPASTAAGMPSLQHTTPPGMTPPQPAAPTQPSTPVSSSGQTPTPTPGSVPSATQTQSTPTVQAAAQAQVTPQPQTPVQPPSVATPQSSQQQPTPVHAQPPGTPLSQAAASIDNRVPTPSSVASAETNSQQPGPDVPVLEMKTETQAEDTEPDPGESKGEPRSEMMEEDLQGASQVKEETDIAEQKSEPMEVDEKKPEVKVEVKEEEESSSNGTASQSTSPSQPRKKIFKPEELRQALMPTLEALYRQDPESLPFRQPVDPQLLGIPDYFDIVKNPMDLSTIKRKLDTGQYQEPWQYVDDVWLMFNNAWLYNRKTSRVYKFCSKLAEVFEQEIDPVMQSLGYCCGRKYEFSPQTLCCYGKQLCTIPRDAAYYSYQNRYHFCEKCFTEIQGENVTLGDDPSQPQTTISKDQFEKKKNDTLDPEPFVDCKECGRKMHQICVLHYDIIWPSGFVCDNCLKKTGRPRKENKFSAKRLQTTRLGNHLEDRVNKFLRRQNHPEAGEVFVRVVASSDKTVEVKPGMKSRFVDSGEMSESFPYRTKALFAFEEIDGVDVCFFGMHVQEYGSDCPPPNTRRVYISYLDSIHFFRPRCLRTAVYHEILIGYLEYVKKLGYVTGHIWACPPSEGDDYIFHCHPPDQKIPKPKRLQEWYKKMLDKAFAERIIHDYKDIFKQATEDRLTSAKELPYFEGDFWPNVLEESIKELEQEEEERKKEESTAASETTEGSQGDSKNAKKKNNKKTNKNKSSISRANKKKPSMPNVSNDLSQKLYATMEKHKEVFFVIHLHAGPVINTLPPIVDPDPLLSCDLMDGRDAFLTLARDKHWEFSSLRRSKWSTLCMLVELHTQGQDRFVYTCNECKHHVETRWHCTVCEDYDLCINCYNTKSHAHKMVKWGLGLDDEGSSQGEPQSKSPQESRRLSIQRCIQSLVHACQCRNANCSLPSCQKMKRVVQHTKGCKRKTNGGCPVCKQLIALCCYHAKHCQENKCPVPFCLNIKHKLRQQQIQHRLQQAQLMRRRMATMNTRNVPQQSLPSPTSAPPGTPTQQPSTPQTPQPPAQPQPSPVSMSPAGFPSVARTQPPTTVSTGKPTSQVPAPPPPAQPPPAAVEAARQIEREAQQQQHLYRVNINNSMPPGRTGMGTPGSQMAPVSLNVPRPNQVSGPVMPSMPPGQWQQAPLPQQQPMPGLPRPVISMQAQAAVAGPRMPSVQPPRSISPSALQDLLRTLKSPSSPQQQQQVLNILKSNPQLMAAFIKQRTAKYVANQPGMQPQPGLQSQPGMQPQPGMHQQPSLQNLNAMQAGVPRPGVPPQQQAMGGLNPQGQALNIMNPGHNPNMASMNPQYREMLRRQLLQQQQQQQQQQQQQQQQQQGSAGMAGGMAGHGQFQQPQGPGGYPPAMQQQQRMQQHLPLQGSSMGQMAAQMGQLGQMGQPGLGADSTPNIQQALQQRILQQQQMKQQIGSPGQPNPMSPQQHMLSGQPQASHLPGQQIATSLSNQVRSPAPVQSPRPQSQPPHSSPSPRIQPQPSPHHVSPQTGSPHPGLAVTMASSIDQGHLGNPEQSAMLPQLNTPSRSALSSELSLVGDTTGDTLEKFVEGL
# [2] = biological target: Macrophage colony-stimulating factor 1 receptor (Homo sapiens) (UniProt P07333); experiment: Selectivity interaction (SelectScreen profiling (Invitrogen)) EUB0000607a CSF1R; settings: at 2 µM
# [3] = biological target: Ribosomal protein S6 kinase alpha-1 (Homo sapiens, UniProt Q15418); experiment: Selectivity interaction (KinomeScan (DiscoverX)) EUB0000607a RPS6KA1; settings: at 10 µM
# Ribosomal protein S6 kinase alpha-1, sequence (Q15418 whole entry): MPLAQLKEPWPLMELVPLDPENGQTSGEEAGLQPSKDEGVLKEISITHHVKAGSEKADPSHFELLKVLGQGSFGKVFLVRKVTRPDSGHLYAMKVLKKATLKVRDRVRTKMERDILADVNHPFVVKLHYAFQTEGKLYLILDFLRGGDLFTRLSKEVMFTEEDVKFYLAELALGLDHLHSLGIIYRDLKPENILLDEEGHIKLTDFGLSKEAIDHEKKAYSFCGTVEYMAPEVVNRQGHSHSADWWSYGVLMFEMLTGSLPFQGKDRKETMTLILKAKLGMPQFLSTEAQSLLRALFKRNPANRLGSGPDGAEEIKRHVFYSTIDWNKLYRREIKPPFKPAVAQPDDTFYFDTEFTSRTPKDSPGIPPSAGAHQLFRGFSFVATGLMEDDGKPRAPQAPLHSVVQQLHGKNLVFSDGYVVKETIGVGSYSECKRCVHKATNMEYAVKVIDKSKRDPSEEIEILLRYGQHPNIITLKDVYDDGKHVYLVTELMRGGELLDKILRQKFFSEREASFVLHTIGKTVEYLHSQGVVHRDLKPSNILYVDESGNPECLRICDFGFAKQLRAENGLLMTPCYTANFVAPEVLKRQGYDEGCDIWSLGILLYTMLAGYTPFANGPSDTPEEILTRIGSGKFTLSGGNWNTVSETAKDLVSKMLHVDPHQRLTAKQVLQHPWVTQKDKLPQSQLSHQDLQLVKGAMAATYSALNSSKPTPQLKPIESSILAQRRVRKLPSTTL
# [4] = biological target: T2, Serine/threonine-protein kinase ULK3 (Homo sapiens) (UniProt Q6PHR2); experiment: Selectivity interaction (KinomeScan (DiscoverX)) EUB0000607a ULK3; settings: at 10 µM
# T2 sequence (whole entry): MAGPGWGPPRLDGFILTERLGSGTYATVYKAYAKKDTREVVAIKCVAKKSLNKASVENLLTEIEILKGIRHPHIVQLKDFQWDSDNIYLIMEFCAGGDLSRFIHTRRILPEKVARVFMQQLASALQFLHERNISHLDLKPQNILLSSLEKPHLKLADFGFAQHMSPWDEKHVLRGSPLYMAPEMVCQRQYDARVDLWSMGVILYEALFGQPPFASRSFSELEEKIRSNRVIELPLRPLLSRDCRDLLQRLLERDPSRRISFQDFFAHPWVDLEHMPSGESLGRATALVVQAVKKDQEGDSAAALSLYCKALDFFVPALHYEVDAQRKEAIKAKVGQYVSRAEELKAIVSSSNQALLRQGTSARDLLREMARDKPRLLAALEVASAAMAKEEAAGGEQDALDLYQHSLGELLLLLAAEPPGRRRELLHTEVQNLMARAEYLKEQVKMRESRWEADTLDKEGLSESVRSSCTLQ
# [5] = biological target: T3, Inhibitor of nuclear factor kappa-B kinase subunit beta (Homo sapiens) (UniProt O14920); experiment: Selectivity interaction (KinomeScan (DiscoverX)) EUB0000695a IKBKB; settings: at 100 nM
# T3 sequence (whole entry): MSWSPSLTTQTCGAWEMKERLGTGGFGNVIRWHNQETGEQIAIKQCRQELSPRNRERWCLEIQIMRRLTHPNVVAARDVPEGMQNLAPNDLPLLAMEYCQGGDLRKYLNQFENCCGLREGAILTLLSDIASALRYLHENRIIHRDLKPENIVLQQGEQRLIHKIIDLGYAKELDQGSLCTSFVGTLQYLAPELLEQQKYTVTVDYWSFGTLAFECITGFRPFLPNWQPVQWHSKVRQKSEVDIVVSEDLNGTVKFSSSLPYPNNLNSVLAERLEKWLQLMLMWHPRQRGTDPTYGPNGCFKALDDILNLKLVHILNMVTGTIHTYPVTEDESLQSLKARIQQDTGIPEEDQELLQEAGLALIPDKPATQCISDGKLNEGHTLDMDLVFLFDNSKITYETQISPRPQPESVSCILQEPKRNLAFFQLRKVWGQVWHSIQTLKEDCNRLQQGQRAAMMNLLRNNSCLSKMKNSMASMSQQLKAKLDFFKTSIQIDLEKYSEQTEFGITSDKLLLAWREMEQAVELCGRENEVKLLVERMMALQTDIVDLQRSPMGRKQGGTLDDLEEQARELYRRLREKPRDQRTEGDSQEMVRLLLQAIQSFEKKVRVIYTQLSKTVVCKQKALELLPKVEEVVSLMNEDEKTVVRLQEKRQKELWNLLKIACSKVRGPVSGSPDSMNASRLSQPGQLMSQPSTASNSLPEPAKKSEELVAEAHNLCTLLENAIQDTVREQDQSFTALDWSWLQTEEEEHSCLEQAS
# [6] = biological target: Dual specificity protein kinase CLK2 (Homo sapiens, UniProt P49760); experiment: Selectivity interaction (KinomeScan (DiscoverX)) EUB0001049a CLK2; settings: at 1 µM
# Dual specificity protein kinase CLK2, sequence (P49760 whole entry, looked up): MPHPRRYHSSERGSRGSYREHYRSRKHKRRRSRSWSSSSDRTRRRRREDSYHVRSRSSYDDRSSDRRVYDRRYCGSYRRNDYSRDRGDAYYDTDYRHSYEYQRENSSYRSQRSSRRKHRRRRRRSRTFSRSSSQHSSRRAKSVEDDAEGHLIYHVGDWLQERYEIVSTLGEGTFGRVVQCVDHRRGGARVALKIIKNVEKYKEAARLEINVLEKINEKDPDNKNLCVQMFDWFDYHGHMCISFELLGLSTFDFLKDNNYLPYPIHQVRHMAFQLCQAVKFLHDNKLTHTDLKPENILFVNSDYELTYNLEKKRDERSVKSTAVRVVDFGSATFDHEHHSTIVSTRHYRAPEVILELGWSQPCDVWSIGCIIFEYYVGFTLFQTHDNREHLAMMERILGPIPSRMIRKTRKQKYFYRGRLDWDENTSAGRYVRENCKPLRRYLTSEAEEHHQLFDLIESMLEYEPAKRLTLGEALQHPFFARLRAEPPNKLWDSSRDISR
# [7] = biological target: Myosin light chain kinase, smooth muscle (Homo sapiens, UniProt Q15746); experiment: Selectivity interaction (Ambit KINOMEscan and KiNATiv profiling in Jurkat cells) EUB0000090b MYLK; assay type: cell-based; settings: at 1 µM
# [8] = biological target: Serine/threonine-protein kinase Nek7 (Homo sapiens) (UniProt Q8TDX7); experiment: Selectivity interaction (KinomeScan (DiscoverX)) EUB0000655a NEK7; settings: at 10 µM
# Serine/threonine-protein kinase Nek7 (Homo sapiens), sequence (Q8TDX7 whole entry, looked up): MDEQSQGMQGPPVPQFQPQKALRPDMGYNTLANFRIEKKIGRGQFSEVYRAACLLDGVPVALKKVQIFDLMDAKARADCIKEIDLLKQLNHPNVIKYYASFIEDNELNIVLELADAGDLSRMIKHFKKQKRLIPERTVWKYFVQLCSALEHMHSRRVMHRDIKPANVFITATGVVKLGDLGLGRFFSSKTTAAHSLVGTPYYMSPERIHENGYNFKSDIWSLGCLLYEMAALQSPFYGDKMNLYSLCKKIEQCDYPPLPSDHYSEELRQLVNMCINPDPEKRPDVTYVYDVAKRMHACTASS
# [9] = biological target: Tyrosine-protein kinase Fgr (Homo sapiens) (UniProt P09769); experiment: Selectivity interaction (KinomeScan (DiscoverX)) EUB0000092b FGR; settings: at 10 µM
# Tyrosine-protein kinase Fgr (Homo sapiens), sequence (P09769 2-529 limits assumed): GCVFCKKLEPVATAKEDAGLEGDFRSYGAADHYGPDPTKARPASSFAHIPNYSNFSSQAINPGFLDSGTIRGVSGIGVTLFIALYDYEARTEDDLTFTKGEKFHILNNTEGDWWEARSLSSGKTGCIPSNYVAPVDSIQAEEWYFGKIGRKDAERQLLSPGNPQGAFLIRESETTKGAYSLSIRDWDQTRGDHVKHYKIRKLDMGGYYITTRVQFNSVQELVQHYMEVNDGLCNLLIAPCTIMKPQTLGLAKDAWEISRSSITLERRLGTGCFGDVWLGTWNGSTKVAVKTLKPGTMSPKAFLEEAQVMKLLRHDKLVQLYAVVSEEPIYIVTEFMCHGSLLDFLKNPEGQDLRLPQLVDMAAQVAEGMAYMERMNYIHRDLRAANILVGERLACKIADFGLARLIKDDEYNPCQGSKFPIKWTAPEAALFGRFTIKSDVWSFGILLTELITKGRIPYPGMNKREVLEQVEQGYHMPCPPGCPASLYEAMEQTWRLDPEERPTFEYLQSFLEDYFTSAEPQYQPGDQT
# [10] = biological target: Serine/threonine-protein kinase SIK2 (Homo sapiens) (UniProt Q9H0K1); experiment: Selectivity interaction (Kinase panel (Carna Biosciences)) EUB0001542aTs SIK2; settings: at 1 µM
compound,measurement,setting,value
Cn1cc(-n2cnc3c(NCc4nc5cc(Cl)c(Cl)cc5[nH]4)nc(N4CCOCC4)nc32)cn1,% of inhibition,[1],-63.1%
CN(C)CCCOc1ccc(-c2cc(NCCCn3cccn3)nc(S(C)(=O)=O)n2)cc1,dTM,CREB-binding protein,< 2 K
CNC(=O)Nc1ccc(-c2nc(N3CC4CCC(C3)O4)c3cnn(C4CCC5(CC4)OCCO5)c3n2)cc1,% of inhibition,[2],7%
same,% of control,[3],91%
same,% of control,[4],92%
Cc1cc(F)c(C(=O)Nc2cccc(-c3nncn3C(C)C)n2)cc1-n1cnc(C2CC2)c1,% of control,[5],100%
COc1cc(Nc2nc(C)cc(-c3cnn4nc(OC)ccc34)n2)cc(C(F)(F)F)c1,% of control,[6],96%
CN(C)C/C=C/C(=O)Nc1ccc(C(=O)N2CCCC(Nc3ncc(Cl)c(-c4c[nH]c5ccccc45)n3)C2)cc1 (stereo unspecified),% of control,[7],100%
CN(C)CCOc1ccc(-c2nc(-c3ccncc3)c(-c3ccc4c(c3)CC/C4=N\O)[nH]2)cc1,% of control,[8],100%
CCC(=O)N1CCN(c2ccc(-n3c(=O)ccc4cnc5ccc(-c6cnc7ccccc7c6)cc5c43)cc2C(F)(F)F)CC1,% of control,[9],78%
Cn1cc(Nc2nccc(N3CC4CCC(C3)N4C(=O)[C@@H]3CC3(F)F)n2)cn1,% of inhibition,[10],91%
